Values after ≈ are worked out from the molar mass of the structure shown. Values joined by “and” are separate entries in the source; they are usually repeats but may differ in a detail not shown here. Equal entries are not always repeated.
Test system: Campylobacter novel strains
Test: Antimicrobial susceptibility testing by agar dilution method (MIC);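 also: agar dilution MIC on HBA, used in place of the BSAC-recommended Iso-sensitest agar, across a panel of 14 antimicrobials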
Details: for Distribution (%) of MIC (μg/ml) 0.03: % of novel strains with MIC 0.03 μg/ml; for Distribution (%) of MIC (μg/ml) 0.06: % of novel strains with MIC 0.06 μg/ml; for Distribution (%) of MIC (μg/ml) 0.13: % of novel strains with MIC 0.13 μg/ml; for Distribution (%) of MIC (μg/ml) 0.25: % of novel strains with MIC 0.25 μg/ml; for Distribution (%) of MIC (μg/ml) 1: % of novel strains with MIC 1 μg/ml; for Distribution (%) of MIC (μg/ml) 2: % of novel strains with MIC 2 μg/ml; for Distribution (%) of MIC (μg/ml) 4: % of novel strains with MIC 4 μg/ml; for Distribution (%) of MIC (μg/ml) 8: % of novel strains with MIC 8 μg/ml; for Distribution (%) of MIC (μg/ml) 32: % of novel strains with MIC 32 μg/ml; for Distribution (%) of MIC (μg/ml) 64: % of novel strains with MIC 64 μg/ml
[1] = Campylobacter novel strains, agar dilution on HBA

CC1(C)S[C@@H]2[C@H](NC(=O)[C@H](N)c3ccccc3)C(=O)N2[C@H]1C(=O)O [Ampicillin]
MIC50 (Campylobacter): 1 µg/mL (≈ 2.86 µM) | MIC90 (Campylobacter): 2 µg/mL (≈ 5.72 µM)

CCN1CCN(C(=O)N[C@@H](C(=O)N[C@@H]2C(=O)N3C(C(=O)O)=C(CSc4nnnn4C)CS[C@H]23)c2ccc(O)cc2)C(=O)C1=O [Cefoperazone]
MIC50 (Campylobacter): 64 µg/mL (≈ 99.1 µM) | MIC90 (Campylobacter): 64 µg/mL (≈ 99.1 µM)

Colistin
Distribution (%) of MIC (μg/ml) 0.03 (agar dilution on HBA): 0% | Distribution (%) of MIC (μg/ml) 0.06 (agar dilution on HBA): 0% | Distribution (%) of MIC (μg/ml) 0.13 (agar dilution on HBA): 0% | Distribution (%) of MIC (μg/ml) 0.25 (agar dilution on HBA): 0% | Distribution (%) of MIC (μg/ml) 0.50 (% of novel strains with MIC 0.50 μg/ml, agar dilution on HBA): 0% | Distribution (%) of MIC (μg/ml) 1 (agar dilution on HBA): 0% | Distribution (%) of MIC (μg/ml) 2 (agar dilution on HBA): 0% | Distribution (%) of MIC (μg/ml) 4 (agar dilution on HBA): 8.70% | Distribution (%) of MIC (μg/ml) 8 (agar dilution on HBA): 73.91% | Distribution (%) of MIC (μg/ml) 32 (agar dilution on HBA): 13.04% | Distribution (%) of MIC (μg/ml) 64 (agar dilution on HBA): 0% | MIC50 [1]: 8 µg/mL | MIC90 [1]: 32 µg/mL

[H]/N=C(/N)N[C@H]1[C@H](O)[C@@H](O)[C@H](O[C@@H]2O[C@@H](C)[C@](O)(C=O)[C@H]2O[C@@H]2O[C@@H](CO)[C@H](O)[C@@H](O)[C@@H]2NC)[C@@H](N/C(N)=N\[H])[C@@H]1O [Streptomycin]
MIC50 (Campylobacter): 1 µg/mL (≈ 1.72 µM) | MIC90 (Campylobacter): 1 µg/mL (≈ 1.72 µM)

C=C[C@]1(C)C[C@@H](OC(=O)CSCCN(CC)CC)[C@]2(C)[C@H](C)CC[C@]3(CCC(=O)[C@H]32)[C@@H](C)[C@@H]1O [Tiamulin]
MIC50 (Campylobacter): 2 µg/mL (≈ 4.05 µM) | MIC90 (Campylobacter): 2 µg/mL (≈ 4.05 µM)

CN(C)[C@@H]1C(O)=C(C(N)=O)C(=O)[C@@]2(O)C(O)=C3C(=O)c4c(O)cccc4[C@@](C)(O)[C@H]3C[C@@H]12 [Tetracycline]
MIC50 (Campylobacter): 1 µg/mL (≈ 2.25 µM) | MIC90 (Campylobacter): 64 µg/mL (≈ 144 µM)

O=C(N[C@H](CO)[C@H](O)c1ccc([N+](=O)[O-])cc1)C(Cl)Cl [Chloramphenicol]
MIC50 (Campylobacter): 4 µg/mL (≈ 12.4 µM) | MIC90 (Campylobacter): 8 µg/mL (≈ 24.8 µM)

NC[C@H]1O[C@H](O[C@H]2[C@H](O)[C@@H](O[C@H]3O[C@H](CO)[C@@H](O)[C@H](N)[C@H]3O)[C@H](N)C[C@@H]2N)[C@H](O)[C@@H](O)[C@@H]1O [Kanamycin]
MIC50 (Campylobacter): 4 µg/mL (≈ 8.26 µM) | MIC90 (Campylobacter): 4 µg/mL (≈ 8.26 µM)

CC[C@H]1OC(=O)[C@H](C)[C@@H](O[C@H]2C[C@@](C)(OC)[C@@H](O)[C@H](C)O2)[C@H](C)[C@@H](O[C@@H]2O[C@H](C)C[C@H](N(C)C)[C@H]2O)[C@](C)(O)C[C@@H](C)C(=O)[C@H](C)[C@@H](O)[C@]1(C)O [Ertythromycin, Erythromycin]
MIC50 (Campylobacter): 1 µg/mL (≈ 1.36 µM) | MIC90 (Campylobacter): 2 µg/mL (≈ 2.73 µM)

Polymyxin B
Distribution (%) of MIC (μg/ml) 0.03 (agar dilution on HBA): 0% | Distribution (%) of MIC (μg/ml) 0.06 (agar dilution on HBA): 0% | Distribution (%) of MIC (μg/ml) 0.13 (agar dilution on HBA): 0% | Distribution (%) of MIC (μg/ml) 0.25 (agar dilution on HBA): 0% | Distribution (%) of MIC (μg/ml) 1 (agar dilution on HBA): 0% | Distribution (%) of MIC (μg/ml) 2 (agar dilution on HBA): 0% | Distribution (%) of MIC (μg/ml) 4 (agar dilution on HBA): 21.74% | Distribution (%) of MIC (μg/ml) 8 (agar dilution on HBA): 56.52% | Distribution (%) of MIC (μg/ml) 32 (agar dilution on HBA): 8.70% | Distribution (%) of MIC (μg/ml) 64 (agar dilution on HBA): 0% | MIC50 [1]: 8 µg/mL | MIC90 [1]: 16 µg/mL

O=C(O)c1cn(C2CC2)c2cc(N3CCNCC3)c(F)cc2c1=O [Ciprofloxacin]
MIC50 (Campylobacter): 0.06 µg/mL (≈ 0.181 µM) | MIC90 (Campylobacter): 0.06 µg/mL (≈ 0.181 µM)

Gentamycin
Distribution (%) of MIC (μg/ml) 0.03 (agar dilution on HBA): 0% | Distribution (%) of MIC (μg/ml) 0.06 (agar dilution on HBA): 0% | Distribution (%) of MIC (μg/ml) 0.13 (agar dilution on HBA): 0% | Distribution (%) of MIC (μg/ml) 1 (agar dilution on HBA): 0% | Distribution (%) of MIC (μg/ml) 2 (agar dilution on HBA): 0% | Distribution (%) of MIC (μg/ml) 4 (agar dilution on HBA): 0% | Distribution (%) of MIC (μg/ml) 8 (agar dilution on HBA): 0% | Distribution (%) of MIC (μg/ml) 32 (agar dilution on HBA): 0% | Distribution (%) of MIC (μg/ml) 64 (agar dilution on HBA): 0% | MIC50 [1]: 0.5 µg/mL and 0.50 µg/mL | MIC90 [1]: 0.5 µg/mL and 0.50 µg/mL

— US20150284674A1, “CAMPYLOBACTER BACTERIA AND DETECTION” (priority 2012, published 2015)
